The inhibition is the relative decrease from the control value, in per cent.

Substitutions are numbered along the chain they refer to. The source made the active and inactive calls. The rule behind the calls is not given here.

Our source for the inhibition values is ChEMBL document CHEMBL4118135, “Optimized allosteric inhibition of engineered protein tyrosine phosphatases with an expanded palette of biarsenical small molecules” (Bioorg Med Chem, 2018).

Test [1] has as its target T1, Tyrosine-protein phosphatase non-receptor type 1 (Homo sapiens) (UniProt P18031).
T1 sequence (whole entry): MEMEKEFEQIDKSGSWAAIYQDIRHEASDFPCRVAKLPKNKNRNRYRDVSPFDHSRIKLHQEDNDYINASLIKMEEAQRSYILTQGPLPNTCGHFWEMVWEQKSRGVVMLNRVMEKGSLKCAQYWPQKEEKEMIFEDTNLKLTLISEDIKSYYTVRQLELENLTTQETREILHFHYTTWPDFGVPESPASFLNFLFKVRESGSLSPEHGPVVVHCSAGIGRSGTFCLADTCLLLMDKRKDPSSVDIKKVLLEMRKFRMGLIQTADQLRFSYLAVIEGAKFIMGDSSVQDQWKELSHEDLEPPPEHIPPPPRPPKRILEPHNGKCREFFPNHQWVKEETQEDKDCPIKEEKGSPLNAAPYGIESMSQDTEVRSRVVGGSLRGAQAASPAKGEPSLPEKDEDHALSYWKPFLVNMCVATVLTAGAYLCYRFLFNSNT
Nature of the test: Inhibition of His6-tagged human wild-type PTP1B catalytic domain overexpressed in Escherichia coli BL21(DE3) cells at 100 uM using pNPP as substrate incubated for 90 mins by quenched phosphatase activity assay.

Test [2] concerns the target T2, Tyrosine-protein phosphatase non-receptor type 7 (Homo sapiens) (UniProt P35236).
T2 sequence (whole entry): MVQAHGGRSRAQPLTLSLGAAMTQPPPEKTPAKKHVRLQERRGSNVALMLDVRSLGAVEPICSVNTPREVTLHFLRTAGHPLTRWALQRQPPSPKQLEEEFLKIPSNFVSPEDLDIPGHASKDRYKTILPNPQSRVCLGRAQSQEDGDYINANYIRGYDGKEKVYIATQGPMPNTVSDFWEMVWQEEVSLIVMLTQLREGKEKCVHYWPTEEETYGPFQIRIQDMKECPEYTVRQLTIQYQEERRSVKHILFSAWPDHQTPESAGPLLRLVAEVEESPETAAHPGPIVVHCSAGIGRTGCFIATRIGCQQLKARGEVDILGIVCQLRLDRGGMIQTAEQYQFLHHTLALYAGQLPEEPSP
Nature of the test: Inhibition of His6-tagged human wild-type HePTP catalytic domain at 1 uM using pNPP as substrate incubated for 90 mins by quenched phosphatase activity assay.

The subject of test [3] is T3, Tyrosine-protein phosphatase non-receptor type 7 (Homo sapiens), P35236 [P171C,V205C].
T3 sequence (whole entry): T2 sequence (whole entry) with P171C, V205C
Nature of the test: Inhibition of allosterically sensitized mutant form of His6-tagged human HePTP at 1000 nM using pNPP as substrate measured at 5 mins by quenched phosphatase activity assay.

The test system is the same in test [4]. In words: Inhibition of allosterically sensitized mutant form of His6-tagged human HePTP catalytic domain at 1 uM using pNPP as substrate measured up to 10 mins by quenched phosphatase activity assay.

As to `CC1(C)C(/C=C/C=C2/N(CCCCS(=O)(=O)O)c3ccc([As]4SCCS4)cc3C2(C)C)=[N+](CCCCS(=O)(=O)O)c2ccc([As]3SCCS3)cc21`, the inhibition entry in test [1] was “inactive”.
As for `O=C(O)c1ccccc1-c1c2ccc(=O)c([As]3SCCS3)c-2oc2c([As]3SCCS3)c(O)ccc12`, the inhibition entry in test [2] was “inactive”. Besides, the inhibition was 70% in test [3] and 50% in test [4].
